From patent publication US20200138750A1, “Use of Mustard Seed Oil (Allyl Isothiocyanate) to relieve headache pain” (priority 2018, published 2020)

System: users suffering with headaches
Assay: Inhalation of pure AITC vapor through the nostrils by users with headaches
Format: in vivo
Experimental: In the present invention AITC is taken in to its purest form. To treat headache instantly, Purest AITC needs to be inhaled deeply for up to 5 seconds in each nostril. If it is taken correctly, due to its pungency and potency, the vapor of AITC will instantly felt inside on the top of the crown of the user's head.
If AITC is inhaled properly and as directed, most users will be out of irritation in less than 2 minutes.
In current studies we have used pure AITC in above mentioned quantity into small dark thick glass vials with aluminum seal and tight screw caps. The bottles are also very small mouth.

## C=CCN=C=S [AITC, Allyl isothiocyanate]
AITC inhaled properly and as directed, most users
  time until users are out of irritation after inhalation: less than 2 minutes
inhalation
  nasal mucus, sinus pressure and sinus headache: relives sinusitis pressure and sinus headaches
Inhalation remedy
  addiction or rebound headaches: does not lead to addiction or rebound headaches
  side effects: does not have any side effects
inhalation, users with headaches
  headache relief: headache is also relieved
Inhaled deeply
  irritation and lachrymal effect on deep inhalation: instantly irritated and most likely get tears from eyes
Natural (from mustard seeds, horseradish or wasabi) vs synthetic (99.9% pure)
  natural versus synthetic AITC in treating headaches: almost same result in treating headaches
Pure AITC inhaled as directed, most users suffering with headaches
  time to relief from headache pain: relived from pain in seconds in most cases or up to couple of minutes
